Measurements taken from patent US9023386B2, “Microspheres comprising nanocapsules containing a lipophilic drug” (Yissum Research Development Company of the Hebrew …, priority 2006, dated 2015).

Experiments:
[1] = cited from earlier work
[2] = In-vitro stability of tacrolimus in rat intestinal juice (pH 6.5); assay type: in vitro ADME
Method: The following solutions were added sequentially to a test tube: 300 μl of freshly thawed intestinal juice, 60 μl of 0.6 M phosphate buffer, pH 6.5 (the pH of the mixture of intestinal juice) and 25 μg/ml of tacrolimus in various formulations (up to 1.5 ml). The mixtures were stirred and incubated at 37° C. over time. At given time intervals of 5, 10, 20, 30, 45, 60, 90 and 120 min, the samples were withdrawn from the incubation, mixed with 150 μl of 0.5 M hydrochloric acid and 2 ml of ethyl acetate. The resulting mixtures were stirred vigorously and centrifuged at 4000 rpm (equivalent to 3000 g) over 10 min. The extraction of tacrolimus by ethyl acetate was repeated three times to ensure total removal of the drug from the mixtures. The different ethyl acetate layers (upper layers) were transferred to clean tubes and evaporated under nitrogen to dryness. The combined residues were dissolved in 1 ml of acetonitrile, and 50 μl were injected in the HPLC under the following conditions: Mobile phase Acetonitrile 100%, Flow rate 0.5 ml/min, Wavelength—213 nm, Column—LiChrospher® 100 RP-18 (5 μm), 4/120 mm.

[3] = system: P-gp; assay: Caco-2 uptake study (apparent permeability); assay type: in vitro ADME; conditions: human; Caco-2, 25 μg/ml tacrolimus, Hanks buffer pH 7.4, 60 min, without verapamil
Method: Caco-2 monolayers (passage 73) were grown in Dulbecco's modified Eagle's medium supplemented with 10% fetal bovine serum, 1% L-glutamine, 1% nonessential amino acids, and 5% antibiotic-antimycotic solution at 37° C. in humidified air, 5% CO2 atmosphere. The culture medium was first replaced after 72 h and every 48 h thereafter. The uptake studies were conducted with monolayers between 8 to 10 days in culture. All diffusion experiments were performed over 1 h at 37° C. Prior to the experiments, the culture medium was replaced with transport medium and cell monolayers were subsequently equilibrated for 30 min at 37° C. before the uptake study. Transport medium was Hanks buffer composed of 136.89 mM NaCl, 5.36 mM KCl, 0.34 mM Na2HPO4, 0.44 mM KH2PO4, 0.41 mM MgSO4 7H2O, 19.45 mM glucose, 1.26 mM CaCl2, 0.49 mM MgCl2.6H2O, 4.17 mM NaHCO3, 10 mM HEPES, and the pH was adjusted to 7.4. […] The lysate was collected in clean tube and tacrolimus was determined by HPLC as described above. […]
The apparent permeability (Papp, cm/s) was calculated according to the following equation described by Schrickx and Fink-Gremmels (J. Schrickx and J. Fink-Gremmels. P-glycoprotein-mediated transport of oxytetracycline in the Caco-2 cell model. J. Vet Pharmacol. Therap. 30: 25-31 (2007).

[4] = immunosuppression; cited from earlier work

## C=CC[C@@H]1/C=C(\C)C[C@H](C)C[C@H](OC)[C@H]2O[C@@](O)(C(=O)C(=O)N3CCCC[C@H]3C(=O)O[C@H](/C(C)=C/[C@@H]3CC[C@@H](O)[C@H](OC)C3)[C@H](C)[C@@H](O)CC1=O)[C@H](C)C[C@@H]2OC [tacrolimus]
[1]; in vivo, po
  oral bioavailability: 10-25%
[1]; in vivo
  dose excreted unchanged in the urine: Less than 1%
  drug bound by erythrocytes: 75-80%
  whole blood concentrations relative to plasma concentrations: 10- to 30 times
[1]; liver transplant patients
  elimination half-life: about 12 hours
[2]; PBS pH 6.5, no intestinal juice, 120 min incubation
  tacrolimus stability incubated only with PBS (Control (−)): remained intact
[2]; intestinal juice with PBS pH 6.5, 37° C., 25 μg/ml tacrolimus, up to 120 min
  initial tacrolimus concentration decomposed / reduced: at least 50%
[3]
  Papp at 60 min, 25 μg/ml: 20.5 ± 2.6 nm/s
[4]
  potency relative to cyclosporine: 10-100 times
